# Reference: patent US20040248918A1, “N-phenyl-2-pyrimidine-amine derivatives and process for the preparation thereof” (IL YANG PHARM. CO., LTD., priority 2003, published 2004)
# Like-named read-outs stand apart in the source and are kept apart here.
# Tests used:
# [1] = tested on: hematologic malignancy cell (HL-60); experiment: Growth inhibition of HL-60 (MTT); type: cell-based; design: IC50 as fraction of that of Imatinib mesylate: unit not given beside the values; conditions: for IC50: Homo sapiens
# [2] = tested on: acute myelogenous leukemia cell (KG-1); experiment: Growth inhibition of KG-1 (MTT); type: cell-based; conditions: for IC50: Homo sapiens
# [3] = tested on: cervical cancer cell of HeLa229; experiment: Growth inhibition of HeLa 229 (MTT); type: cell-based; conditions: for IC50: Homo sapiens, read-out: IC50
# [4] = tested on: ovarian cancer cell (SK-OV-03); experiment: Growth inhibition of SK-OV-03 (MTT); type: cell-based; design: IC50 as fraction of that of Imatinib mesylate: unit not given beside the values
# Protocol: (§1) In the present experiment, the inhibitory activity of the compound of formula (1) was determined against the growth of K562 cancer cell. First, the cells were allowed to stand in RPMI (Roswell Park Memorial Institute)-1640 medium containing 10% (v/v) fetal bovine serum in an incubator of 37° C. and 5% by volume of CO2. The cancer cells (1000 cells) were transferred to a 96-well plate, and the test compound was diluted. The plate was allowed to stand under the above mentioned conditions for 2 days. After this treatment, to the cells was added 0.2% MTT (3-[4,5-dimethylthiazol-2-yl]-2,5-diphenyltetrazolium bromide) solution, and the resulting mixture was allowed to stand under the constant temperature-condition for 4 hours. The supernatant was removed to leave the resulting crystal. DMSO was added to dissolve the crystal, and the absorbance of the solution was measured at 540 nm. IC50 value was calculated using a computer system according to the following formula: […]
# (§2) The test was performed according to the same procedure as Experiment 1.
# [5] = Comparative pharmacokinetic test in white rats; type: in vivo, white rats (Sprague-Dawley); conditions: rat
# Protocol: On the previous day to the test, white rats (Sprague-Dawley, 250˜280 g, male) were put under anesthesia by pentobarbital sodium (50 mg/kg, I.P.). Then, cannula (polyethylene tube; diameter: 0.58mm) was introduced into the rats via the carotid artery and jugular vein, and drawn out to the back. After the operation, the rats were fasted for 16 hours and used for the test. […] Blood was collected in 0, 0.5, 1, 1.5, 2, 2.5, 3, 3.5, 4, 4.5, 5, 6, 8, 10, 12, and 24 hours from the carotid artery. The samples for HPLC analysis were prepared using the collected blood according to the following procedure and were analyzed under the following conditions.
# Blood was collected by an amount of 0.5 ml at each prearranged time and centrifuged at 15000 rpm for 7 minutes to separate […] of plasma. In order to remove proteins, MeOH was added in an amount of […], twice as much as the amount of plasma, and the mixture was shaken for 30 minutes. The mixture was centrifuged again at 15000 rpm for 5 minutes to give protein free supernatant, which was then analyzed by HPLC.
# Flow rate: 1.0 ml/min, UV detection at 267 nm
# Column: 4.6×150 mm, 5C18-AR-II, COSMOSIL
# Eluent: Mixture of ion pair sample (420 ml) and MeOH (580 ml)
# Ion pair sample: 7.5 g of 1-octanesulfonic acid was dissolved in 800 ml of water. The resulting mixture was adjusted to pH 2.5 using phosphoric acid and diluted with water to 1000 ml volume.
# Here, the pharmacokinetic parameters are Tmax (time to reach the maximum blood concentration), Cmax (maximum blood concentration), AUC (area under the curve of time-blood concentration), and T1/2 (half time in blood), and the AUC was calculated under trapezoid rule (see Tables 6, 7 and FIGS. 1, 2).
# [6] = tested on: K562 cancer cell (CML cell line); experiment: Growth inhibition of K562 cancer cell (MTT); type: cell-based; conditions: for IC50: K562, 2 days, MTT; for Improved activity versus Imatinib mesylate: K562
# Protocol: In the present experiment, the inhibitory activity of the compound of formula (1) was determined against the growth of K562 cancer cell. First, the cells were allowed to stand in RPMI (Roswell Park Memorial Institute)-1640 medium containing 10% (v/v) fetal bovine serum in an incubator of 37° C. and 5% by volume of CO2. The cancer cells (1000 cells) were transferred to a 96-well plate, and the test compound was diluted. The plate was allowed to stand under the above mentioned conditions for 2 days. […] The supernatant was removed to leave the resulting crystal.
# [7] = tested on: pancreatic cancer cell of CAPAN-2; experiment: Growth inhibition of CAPAN-2 (MTT); type: cell-based; conditions: for Improved activity versus 5-Fu / Improved activity versus cisplatin: CAPAN-2; for IC50: Homo sapiens, Capan-2, read-out: IC50
# [8] = tested on: hepatoma cell (SNU-182); experiment: Growth inhibition of SNU-182 (MTT); type: cell-based; design: IC50 as fraction of that of Imatinib mesylate: unit not given beside the values; conditions: for IC50: Homo sapiens
# Protocol: as §1, §2
# [9] = tested on: gastric cancer cell (KATO III); experiment: Growth inhibition of KATO III (MTT); type: cell-based; design: IC50 as fraction of that of Imatinib mesylate: unit not given beside the values; conditions: for IC50: Homo sapiens
# Protocol: as §1, §2
# [10] = tested on: bladder cancer cell of HT-1197; experiment: Growth inhibition of HT-1197 (MTT); type: cell-based; conditions: for IC50: Homo sapiens, HT1197, read-out: IC50
# Protocol: as §1, §2
# [11] = tested on: rectal cancer cell of CMT-93; experiment: Growth inhibition of CMT-93 (MTT); type: cell-based; conditions: for IC50: CMT93, read-out: IC50
# Protocol: as §1, §2
# [12] = tested on: breast cancer cell (MCF-7); experiment: Growth inhibition of MCF-7 (MTT); type: cell-based; design: IC50 as fraction of that of Imatinib mesylate: unit not given beside the values; conditions: for IC50: Homo sapiens, MCF7
# Protocol: as §1, §2
# [13] = tested on: colon cancer cell of SNU-C1; experiment: Growth inhibition of SNU-C1 (MTT); type: cell-based; conditions: for IC50: Homo sapiens, read-out: IC50
# [14] = tested on: oral epithelial cancer cell (KB); experiment: Growth inhibition of KB (MTT); type: cell-based; design: IC50 as fraction of that of Imatinib mesylate: unit not given beside the values; conditions: for IC50: Homo sapiens
# Protocol: as §1, §2
# [15] = tested on: L1210 cancer cell (leukemia cell line); experiment: Growth inhibition of L1210 cancer cell (MTT); type: cell-based; conditions: Mus musculus
# Protocol: as §1
# In the present experiment, the inhibitory activity of the compound of formula (1) was determined against the growth of L1210 cancer cell. The test was performed according to the same procedure as Experiment 1.
# [16] = tested on: encephalophyma cell of A172; experiment: Growth inhibition of A172 (MTT); type: cell-based; conditions: for IC50: Homo sapiens, A 172, read-out: IC50
# Protocol: as §1, §2
# [17] = tested on: lung cancer cell (A549); experiment: Growth inhibition of A549 (MTT); type: cell-based; design: IC50 as fraction of that of Imatinib mesylate: unit not given beside the values; conditions: for IC50: Homo sapiens
# Protocol: as §1, §2
# [18] = male, Sprague-Dawley, plasma, po, 50 mg/kg, P.O.
# [19] = Homo sapiens, K562, 48 h, read-out: IC50
# [20] = male, Sprague-Dawley, plasma, iv, 50 mg/kg, I.V.
SMILES,IC50 [1] [mg/L],IC50 [2] [mg/L],IC50 [3] [mg/L],IC50 [4] [mg/L],"IC50 [6, 19] [mg/L]",Improved activity versus 5-Fu [7] [times],Improved activity versus cisplatin [7],IC50 [7] [mg/L],IC50 [8] [mg/L],IC50 [9] [mg/L],IC50 [10] [mg/L],IC50 [11] [mg/L],IC50 [12] [mg/L],Improved activity versus 5-Fu [13] [times],Improved activity versus Imatinib mesylate [13],Improved activity versus cisplatin [13],IC50 [13] [mg/L],IC50 [14] [mg/L],IC50 [15] [mg/L],IC50 [16] [mg/L],also measured
"CS(=O)(=O)O.Cc1ccc(NC(=O)c2ccc(CNN3CCN(C)CC3)cc2)cc1Nc1nccc(-c2cccnc2)n1 [Example 4, 4-(4-methylpiperazin-1-ylaminomethyl)-N-[4-methyl-3-(4-(pyridin-3-yl)pyrimidin-2-yl)aminophenyl]benzamide methanesulfonate]",27.8,> 50,48.5,> 50,≤ 0.1,17,9 times,56.3,48,32.4,50.1,8.39,> 50,9,3 times,30 times,10,35,26.9,39.3,"Cmax [5, 18]: 3.16 µg/mL; Tmax [5, 18]: 2 h; AUC ([5]; male, Sprague-Dawley, plasma, po, 50 mg/kg, P.O., trapezoid rule): 23 µg·h/mL; AUC relative to Imatinib mesylate ([5]; both per oral 100 mg/kg): about twice; Cmax relative to Imatinib mesylate ([5]; both per oral 100 mg/kg): about twice; IC50 ([6]; methanesulfonate): <0.10 mg/L; Improved activity versus Imatinib mesylate ([6]; listed as example 4, methanesulfonate): 5 times; Improved activity versus Imatinib mesylate ([6]; methanesulfonate): ≥ 5 times; IC50 [17]: 46.6 mg/L"
"CN1CCCN(Cc2ccc(C(=O)Nc3ccc(Nc4nccc(-c5cccnc5)n4)cc3)cc2)CC1.CS(=O)(=O)O [Example 10, 4-(4-methylhomopiperazin-1-ylmethyl)-N-[4-(4-(pyridin-3-yl)pyrimidin-2-yl)aminophenyl]benzamide methanesulfonate]",4.28,3.31,5.5,25.5,3.85,> 20,more than 10 times,45.9,7.94,3.26,1.7,4.04,6.96,> 80,more than 25 times,more than 250 times,1.2,8.99,3.4,5.5,"IC50 as fraction of that of Imatinib mesylate [1]: 1/8; IC50 as fraction of that of Imatinib mesylate [2]: 1/10; Improved activity versus Imatinib mesylate [3]: more than 8 times; IC50 as fraction of that of Imatinib mesylate [4]: 1/2; AUC [5, 20]: 8.92 µg·h/mL; half-life [5, 20]: 1.37 h; IC50 as fraction of that of Imatinib mesylate [8]: 1/5; IC50 as fraction of that of Imatinib mesylate [9]: 1/10; Improved activity versus 5-Fu [10]: > 55 times; Improved activity versus Imatinib mesylate [10]: > 32 times; Improved activity versus cisplatin [10]: more than 4.4 times; Improved activity versus Imatinib mesylate [11]: > 1.5 times; IC50 as fraction of that of Imatinib mesylate [12]: 1/7; IC50 as fraction of that of Imatinib mesylate [14]: 1/5; Improved activity versus 5-Fu [16]: more than 18 times; Improved activity versus Imatinib mesylate [16]: more than 8 times; IC50 as fraction of that of Imatinib mesylate [17]: 1/10; IC50 [17]: 3.5 mg/L"
